# Test results from patent US20250099448A1, “HETEROCYCLIC COMPOUNDS” (Hoffmann-La Roche Inc., priority 2022, published 2025).
# Molecular target: T1, MAGL protein (Homo sapiens, UniProt Q99685)
# T1 sequence (Q99685 1-303): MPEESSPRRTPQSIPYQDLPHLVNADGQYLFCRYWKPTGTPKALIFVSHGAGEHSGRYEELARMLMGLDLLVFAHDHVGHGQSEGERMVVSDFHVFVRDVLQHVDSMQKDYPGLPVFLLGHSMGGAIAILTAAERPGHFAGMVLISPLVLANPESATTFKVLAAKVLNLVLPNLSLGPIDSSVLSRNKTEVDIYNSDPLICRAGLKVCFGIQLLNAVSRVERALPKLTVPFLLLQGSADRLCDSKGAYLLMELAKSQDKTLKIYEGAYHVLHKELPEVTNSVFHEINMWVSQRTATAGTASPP
# Assay: 2-AG assay: MAGL inhibitory activity by hydrolysis of 2-arachidonoylglycerol to arachidonic acid, followed by mass spectrometry
# Format: biochemical
# Conditions: 8 μM 2-arachidonoylglycerol, 15 min preincubation, 30 min reaction at RT, RapidFire MS readout
# Outline: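 Activity was measured by RapidFire SPE–triple-quad MS as the ratio of arachidonic acid to d8-arachidonic acid after 2-AG hydrolysis (8 μM substrate, 30 min, RT, acetonitrile quench). Compounds, tested from 12.5 μM down to […], were first preincubated 15 min with MAGL in TRIS/EDTA/Tween-20 buffer containing 2.5% DMSO.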
row,Compound,IC50
1,"O=C(N1CC(c2ccc(C3(C(F)(F)F)CC3)cc2)C1)N1CC2(CC(c3nnc([C@@H](O)C(F)(F)F)[nH]3)C2)C1 (single isomer, unassigned) [compound 229]",33.9 nM
2,CC(C)(C)CS(=O)(=O)NC1CC2(C1)CN(C(=O)N1CC3(CC(c4nnc(C5CC5)[nH]4)C3)C1)C2 [compound 225],3.67 nM
3,"NC(=O)[C@H]1CCCN1c1ccc(C2CN(C(=O)N3CC4(CC(c5nnc(C6CC6)[nH]5)C4)C3)C2)cc1 [Example 398, (2R)-1 [4-[1-[6-(5-cyclopropyl-4H-1,2,4-triazol-3-yl)-2-azaspiro[3.3]heptane-2-carbonyl]azetidin-3-yl]phenyl]pyrrolidine-2-carboxamide]",2.4 nM
4,O=C(N1CC2(CC(Cc3ccc(S(=O)(=O)C4CC4)cc3)C2)C1)N1CC2(CC(c3nc(C4(O)CC4)n[nH]3)C2)C1 [compound 505],1.3 nM
5,O=C(N1CC2(CC(Cc3nsc(C(F)(F)F)n3)C2)C1)N1CC2(CC(c3nc(C4CC4)n[nH]3)C2)C1 [compound 450],0.24 nM
6,O=C(NCC1(C(F)(F)F)CC1)C1CC2(C1)CN(C(=O)N1CC3(CC(c4nnc(C5CC5)[nH]4)C3)C1)C2 [compound 359],28.4 nM
7,O=C(N1CC2(CC(c3nc(C4CC4)n[nH]3)C2)C1)N1CC2(CN(Cc3nc(C(F)(F)F)no3)C2)C1 [compound 662],11.9 nM
8,O=C(N1CC(c2ccc(-n3cnc(C(F)(F)F)n3)cc2)C1)N1CC2(CC(c3nnc(C4CC4)[nH]3)C2)C1 [compound 930],0.39 nM
9,CC(C)(C)Cc1nnc(C23CC(C4CN(C(=O)N5CC6(CC(c7nc(C8(O)CC8)n[nH]7)C6)C5)C4)(C2)C3)s1 [compound 466],22.9 nM
10,Cc1cc(C23CC(C4CN(C(=O)N5CC6(CC(c7nc(C8CC8)n[nH]7)C6)C5)C4)(C2)C3)[nH]n1 [compound 595],3.63 nM
11,O=C(N1CC2(CCC(S(=O)(=O)c3ccc(C(F)(F)F)cc3)CC2)C1)N1CC2(CC(c3nc(C4(O)CC4)n[nH]3)C2)C1 [compound 550],9.81 nM
12,N#Cc1cc(CC2CC3(C2)CN(C(=O)N2CC4(CC(c5nc(C6(O)CC6)n[nH]5)C4)C2)C3)cc(C(F)(F)F)c1 [compound 749],0.25 nM
13,COc1cc(COC2CCN(C(=O)N3CC4(CC(c5nc(C6CC6)n[nH]5)C4)C3)CC2)ccc1C#N [Example 904],159 nM
14,O=C(N1CC(c2ccc([C@H]3C[C@H](C(F)F)C3)nc2)C1)N1CC2(CC(c3nnc(C4CC4)[nH]3)C2)C1 [compound 301],1.69 nM
15,O=C(N1CC2(CC(Cc3ccc(C(F)(F)F)cc3F)C2)C1)N1CC2(CC(c3nc(C4(F)CC4)n[nH]3)C2)C1 [compound 522],0.05 nM
16,O=C(N1CC(c2nc(CC3(C(F)(F)F)CC3)no2)C1)N1CC2(CC(c3nnc(C4CC4)[nH]3)C2)C1 [compound 245],50.2 nM
17,O=C(N1CC2(CC(c3nc(C4CC4)n[nH]3)C2)C1)N1CC2(CC(S(=O)(=O)c3cccc(OC(F)(F)F)c3)C2)C1 [compound 533],5.57 nM
18,O=C(N1CC(c2ccc(C3(C(F)(F)F)CC3)cc2)C1)N1CC2(CC(c3nnc(C(O)C(F)(F)F)[nH]3)C2)C1 (centres unmarked) [compound 228],14.8 nM
19,O=C(N1CC2(CC(Cc3ccc(F)cn3)C2)C1)N1CC2(CC(c3nnc(C4CC4)[nH]3)C2)C1 [compound 43],0.58 nM

row,Compound,IC50
1,O=C(N1CC(c2ccc(Oc3ccccc3Cl)nn2)C1)N1CC2(CC(c3nnc(C4CC4)[nH]3)C2)C1 [compound 378],16.6 nM
2,O=C(N1CC(c2ccc(N3CC4(CCCC4)C3)nc2)C1)N1CC2(CC(c3nnc(C4CC4)[nH]3)C2)C1 [compound 302],0.48 nM
3,O=C(N1CC2(CC(c3nnc(C4CC4)[nH]3)C2)C1)N1CC2(CN(Cc3ncc(F)cc3F)C2)C1 [compound 165],30.9 nM
4,O=C(N1CC2(CC(Cc3cncc(Cl)c3)C2)C1)N1CC2(CC(c3nnc(C4CC4)[nH]3)C2)C1 [compound 113],0.09 nM
5,O=C(N1CC2(CC(c3nnc(C4CC4)[nH]3)C2)C1)N1CC2(C1)CN(c1ncc(C(F)(F)F)cn1)C2 [compound 694],236 nM
6,"O=C(N1CC2(CCN(Cc3cc(C(F)(F)F)no3)CC2)C1)N1CC2(CC(c3nc(C4CC4)n[nH]3)C2)C1 [Example 955, [6-(3-cyclopropyl-1H-1,2,4-triazol-5-yl)-2-azaspiro[3.3]heptan-2-yl]-[7-[[3-(trifluoromethyl)isoxazol-5-yl]methyl]-2,7-diazaspiro[3.5]nonan-2-yl]methanone]",23.1 nM
7,O=C(N1CC2(CC(c3nc(C4(O)CC4)n[nH]3)C2)C1)N1CC2(CCN(Cc3cccc(S(=O)(=O)C(F)(F)F)c3)C2)C1 [compound 482],3.39 nM
8,O=C(N1CC2(CC(c3nc(C4(F)CC4)n[nH]3)C2)C1)N1CC2(CN(Cc3cc(C(F)(F)F)ns3)C2)C1 [compound 531],7.53 nM
9,O=C(N1CC2(CC(c3nc(C4CC4)n[nH]3)C2)C1)N1CC2(CN(Cc3ccnn3CC(F)(F)F)C2)C1 [compound 717],83.8 nM
10,O=C(N1CC2(CC(c3nc(C4CC4)n[nH]3)C2)C1)N1CC2(CN(Cc3cnn(C(F)(F)F)c3)C2)C1 [compound 513],31.9 nM
11,O=C(N1CC2(CC(c3nnc(C4CC4)[nH]3)C2)C1)N1CC2(C1)CN(c1ccc(C(F)(F)F)cn1)C2 [compound 682],38.4 nM
12,CS(=O)(=O)c1cccc(COC2CN(C(=O)N3CC4(CC(c5nnc(C6CC6)[nH]5)C4)C3)C2)c1 [compound 334],272 nM
13,N#Cc1cc(C2CC2)ccc1OC1CN(C(=O)N2CC3(CC(c4nnc(C5(O)CC5)[nH]4)C3)C2)C1 [compound 317],7.18 nM
14,O=C(N1CC2(CC(c3nnc(C4CC4)[nH]3)C2)C1)N1CC2(CC(C(F)(F)c3ccc(C(F)(F)F)nc3)C2)C1 [compound 826],0.56 nM
15,O=C(N1CC2(CC(c3nc(C4CC4)n[nH]3)C2)C1)N1CC2(CN(Cc3nc(C(F)(F)F)cs3)C2)C1 [compound 780],3.37 nM
16,N=S(=O)(c1ccc(CC2CC3(C2)CN(C(=O)N2CC4(CC(c5nc(C6CC6)n[nH]5)C4)C2)C3)cc1)C(F)(F)F (centres unmarked) [compound 2],0.19 nM
17,O=C(N1CC2(CC(Cc3ccc(S(=O)(=O)C(F)(F)F)cc3)C2)C1)N1CC2(CC(c3nc(C4CC4)n[nH]3)C2)C1 [compound 420],0.02 nM
18,CS(=O)(=O)c1cncc(CC2CC3(C2)CN(C(=O)N2CC4(CC(c5nnc(C6CC6)[nH]5)C4)C2)C3)c1 [compound 120],42 nM
19,O=C(N1CC2(CC(CNCC3(C(F)(F)F)CC3)C2)C1)N1CC2(CC(c3nnc(C4CC4)[nH]3)C2)C1 [compound 352],3.94 nM

row,Compound,IC50
1,"CS(=O)(=O)c1ccccc1-c1ccc(C2CN(C(=O)N3CC4(CC(c5nc(C6(O)CC6)n[nH]5)C4)C3)C2)cc1 [Example 781, [6-[3-(1-hydroxycyclopropyl)-1H-1,2,4-triazol-5-yl]-2-azaspiro[3.3]heptan-2-yl]-[3-[4-(2-mesylphenyl)phenyl]azetidin-1-yl]methanone]",0.93 nM
2,O=C(N1CC2(CC(c3ccc(C(F)(F)F)cc3)C2)C1)N1CC2(CC(c3nnc(C4CC4)[nH]3)C2)C1 [compound 940],0.58 nM
3,N#Cc1cc(C(F)(F)F)ncc1OC1CCC2(C1)CN(C(=O)N1CC3(CC(c4nnc(C5CC5)[nH]4)C3)C1)C2 (racemic) [compound 154],3.5 nM
4,O=C(N1CC2(CC(NCC3(C(F)(F)F)CC3)C2)C1)N1CC2(CC(c3nnc(C4CC4)[nH]3)C2)C1 [compound 221],8.51 nM
5,O=C(N1CC2(CC(c3nc(C4CC4)n[nH]3)C2)C1)N1CC2(CN(Cc3ccn(C(F)(F)F)n3)C2)C1 [compound 601],26.4 nM
6,O=C(N1CC2(CC(Cn3cnc(C(F)(F)F)n3)C2)C1)N1CC2(CC(c3nnc(C4CC4)[nH]3)C2)C1 [compound 71],1.74 nM
7,Cn1ncc(P(C)(C)=O)c1CN1CC2(C1)CN(C(=O)N1CC3(CC(c4nc(C5CC5)n[nH]4)C3)C1)C2 [compound 838],102 nM
8,O=C(N1CC2(CC(Oc3ccc(C(F)(F)F)nc3)C2)C1)N1CC2(CC(c3nnc(C4CC4)[nH]3)C2)C1 [compound 131],2.79 nM
9,Cn1nc(C(F)(F)F)cc1CC1CC2(C1)CN(C(=O)N1CC3(CC(c4nc(C5(O)CC5)n[nH]4)C3)C1)C2 [compound 775],2.01 nM
10,CS(=O)(=O)c1ccc(CN2CCC3(CC2)CN(C(=O)N2CC4(CC(c5nnc(C6CC6)[nH]5)C4)C2)C3)cc1 [compound 179],33.6 nM
11,O=C(N1CC2(CC(Cc3ccc(C(F)(F)F)cn3)C2)C1)N1CC2(CC(c3nc(C4(F)CC4)n[nH]3)C2)C1 [compound 517],0.15 nM
12,O=C(N1CC2(CC(c3nc(C4CC4)n[nH]3)C2)C1)N1CC2(CN(Cc3nnc(C(F)(F)F)s3)C2)C1 [compound 485],64.5 nM
13,NC(=O)c1ccc(CC2CC3(C2)CN(C(=O)N2CC4(CC(c5nc(C6CC6)n[nH]5)C4)C2)C3)cc1OC(F)(F)F [compound 913],0.44 nM
14,O=C(N1CC2(CC(Cc3ncc(F)cc3Cl)C2)C1)N1CC2(CC(c3ncn[nH]3)C2)C1 [compound 789],404 nM
15,O=C(N1CC2(CC(c3nc(C4CC4)n[nH]3)C2)C1)N1CC2(CC[C@@H](Cc3cccc(S(=O)(=O)C(F)(F)F)c3)C2)C1 [compound 543],0.02 nM
16,CC(C)(C)Cc1nnc(C23CC(C4CN(C(=O)N5CC6(CC(c7nnc(C8CC8)[nH]7)C6)C5)C4)(C2)C3)o1 [compound 343],0.97 nM
17,O=C(N1CC2(CC(Cc3cn(CC(F)(F)F)nc3C(F)(F)F)C2)C1)N1CC2(CC(c3nc(C4CC4)n[nH]3)C2)C1 [compound 571],0.55 nM
18,CS(=O)(=O)c1ccc(CC2CC3(C2)CN(C(=O)N2CC4(CC(c5nnc(C6CC6)[nH]5)C4)C2)C3)cc1C(F)(F)F [compound 46],0.9 nM
